Results as given in patent US20080076788A1, “SOLID FORMS OF (3'-CHLOROBIPHENYL-4-YL)(1-(PYRIMIDIN-2-YL)PIPERIDIN-4-YL)METHANONE AND METHODS OF THEIR USE” (priority 2006, published 2008).

Legend:
[1] = tested on: mice; test: Learning and memory in mice after administration of the compound; type: in vivo; conditions: administered to mice
[2] = target: T1, Na^+-dependent proline transporter (Homo sapiens, UniProt Q99884); conditions: statement in words, refers to U.S. patent application Ser. Nos. 11/433,057 and 11/433,626; cited from earlier work
T1 sequence (Q99884 1-636): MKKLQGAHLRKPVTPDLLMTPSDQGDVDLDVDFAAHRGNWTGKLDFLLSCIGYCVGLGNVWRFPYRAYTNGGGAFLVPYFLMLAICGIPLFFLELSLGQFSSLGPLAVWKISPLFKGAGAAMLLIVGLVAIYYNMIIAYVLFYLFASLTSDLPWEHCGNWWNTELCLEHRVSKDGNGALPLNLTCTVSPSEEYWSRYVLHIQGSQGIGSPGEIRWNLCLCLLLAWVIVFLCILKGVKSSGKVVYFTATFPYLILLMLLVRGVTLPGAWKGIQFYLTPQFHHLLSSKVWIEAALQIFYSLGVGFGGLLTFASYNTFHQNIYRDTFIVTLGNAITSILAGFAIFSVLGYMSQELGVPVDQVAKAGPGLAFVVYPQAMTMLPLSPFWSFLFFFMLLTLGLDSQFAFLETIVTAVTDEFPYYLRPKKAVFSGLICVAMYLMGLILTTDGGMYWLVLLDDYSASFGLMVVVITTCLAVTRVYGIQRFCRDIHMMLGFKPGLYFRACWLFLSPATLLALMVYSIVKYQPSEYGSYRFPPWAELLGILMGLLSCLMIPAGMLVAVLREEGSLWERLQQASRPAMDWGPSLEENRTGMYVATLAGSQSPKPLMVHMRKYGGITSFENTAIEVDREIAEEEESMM

- melting point: ~ 117 °C
Compound: O=C(c1ccc(-c2cccc(Cl)c2)cc1)C1CCN(c2ncccn2)CC1 [(3′-chlorobiphenyl-4-yl)(1-(pyrimidin-2-yl)piperidin-4-yl)methanone]
- effect on learning and memory [1]: increase learning and memory
- inhibition of the Na+-dependent proline transporter [2]: inhibitor
